Active and inactive are the calls of the source. The rule behind the calls is not given here.
Legend:
[1] = target: METTL3/METTL14 (Homo sapiens) (UniProt Q86U44+Q9HCE5); assay: (§1) Inhibition of METTL3/METTL14-mediated m6A mRNA expression in human FaDu cells incubated for 24 hrs by LC-MS/MS analysis; assay type: cell-based
[2] = target: METTL3/METTL14 (Homo sapiens, UniProt Q86U44); assay: as §1; assay type: cell-based
[3] = Stability in rat hepatocytes assessed as half life; assay type: ADME, cell-based, Hepatocyte
[4] = system: A549; assay: Antiproliferative activity against human A549 cells assessed as inhibition of cell viability incubated for 72 hrs by ATPlite assay; assay type: functional, cell-based; conditions: A549, 72 h
[5] = system: FaDu; assay: Antiproliferative activity against human FaDu cells assessed as inhibition of cell viability incubated for 72 hrs by ATPlite assay; assay type: functional, cell-based
[6] = Unbound AUC in Sprague-Dawley rat at 1 mg/kg/day, iv measured for 24 hrs by LC-MS/MS analysis; assay type: ADME, organism-based; conditions: in vivo
[7] = system: Kasumi 1; assay: Induction of apoptosis in human Kasumi 1 cells incubated for 48 hrs by Caspase-Glo 3/7 assay; assay type: functional, cell-based
[8] = system: MV4-11; assay: Antitumor activity against human MV4-11 cells expressing Luc-mCh-Puro xenografted in NSG mouse assessed as decrease in hCD45+ cells in bone marrow at 30 mg/kg, ip qd measured after 28 days by flow cytometry; assay type: functional, organism-based; conditions: time 28.0 day
[9] = target: Cytochrome P450 2D6 (Homo sapiens, UniProt P10635); assay: Inhibition of CYP2D6 (unknown origin); assay type: ADME
Sequence of Cytochrome P450 2D6 (P10635 whole entry): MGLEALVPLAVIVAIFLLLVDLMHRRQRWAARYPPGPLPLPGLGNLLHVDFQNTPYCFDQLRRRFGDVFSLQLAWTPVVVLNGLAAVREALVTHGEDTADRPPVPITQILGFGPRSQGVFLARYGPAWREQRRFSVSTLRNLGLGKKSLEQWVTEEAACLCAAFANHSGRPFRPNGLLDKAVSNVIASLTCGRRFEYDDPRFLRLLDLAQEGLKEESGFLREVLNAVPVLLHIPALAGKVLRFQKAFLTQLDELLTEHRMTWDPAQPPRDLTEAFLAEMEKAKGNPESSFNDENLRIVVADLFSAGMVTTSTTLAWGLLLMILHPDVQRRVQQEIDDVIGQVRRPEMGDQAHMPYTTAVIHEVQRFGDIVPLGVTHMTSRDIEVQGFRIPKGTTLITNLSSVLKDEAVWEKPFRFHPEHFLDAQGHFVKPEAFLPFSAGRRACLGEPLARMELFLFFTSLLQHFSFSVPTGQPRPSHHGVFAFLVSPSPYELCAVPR

[10] = system: SK-OV-3; assay: Antitumor activity against human SK-OV-3 cells xenografted in NSG mouse assessed as prolongation of animal survival at 30 mg/kg, ip qd treated for 83 days; assay type: functional, organism-based; conditions: time 83.0 day
[11] = system: MV4-11; assay: Antitumor activity against human MV4-11 cells expressing Luc-mCh-Puro xenografted in NSG mouse assessed as decrease in hCD45+ cells in blood at 30 mg/kg, ip qd measured after 28 days by flow cytometry; assay type: functional, organism-based; conditions: time 28.0 day
[12] = Toxicity in NSG mouse xenografted with human SK-OV-3 cells assessed as macroscopic adverse events at 30 mg/kg, ip qd treated for 83 days; assay type: organism-based; conditions: in vivo, 1992 h, time 83 day
[13] = Stability in human hepatocytes assessed as half life; assay type: ADME, cell-based, Hepatocyte
[14] = system: FaDu; assay: Antitumor activity against human FaDu cells xenografted in NSG mouse assessed as tumor growth inhibition at 30 mg/kg, ip qd treated for 20 days; assay type: functional, organism-based; conditions: time 20.0 day
[15] = system: MV4-11; assay: Antitumor activity against human MV4-11 cells expressing Luc-mCh-Puro xenografted in NSG mouse assessed as inhibition of cancer progression at 30 mg/kg, ip qd treated for 31 days measured upto 40 days by bioluminescence imaging analysis; assay type: functional, organism-based; conditions: time <= 40.0 day
[16] = Unbound fraction in Sprague-Dawley rat plasma at 1 mg/kg/day, iv measured for 24 hrs by LC-MS/MS analysis; assay type: ADME, organism-based; conditions: in vivo
[17] = system: HepG2; assay: Cytotoxicity against human HepG2 cells assessed as cell viability at 50 uM relative to control; assay type: functional; conditions: read-out: Activity
[18] = Toxicity in NSG mouse xenografted with human FaDu cells assessed as macroscopic adverse events at 30 mg/kg, ip qd treated for 20 days; assay type: organism-based; conditions: in vivo, 480 h, time 20 day
[19] = system: MV4-11; assay: Antitumor activity against human MV4-11 cells expressing Luc-mCh-Puro xenografted in NSG mouse assessed as decrease in hCD45+ cells in spleen at 30 mg/kg, ip qd measured after 28 days by flow cytometry; assay type: functional, organism-based; conditions: time 28.0 day
[20] = Half life in rat liver microsomes; assay type: ADME, Microsome
[21] = target: Cytochrome P450 2C19 (Homo sapiens, UniProt P33261); assay: Inhibition of CYP2C19 (unknown origin); assay type: ADME
Sequence of Cytochrome P450 2C19 (P33261 whole entry): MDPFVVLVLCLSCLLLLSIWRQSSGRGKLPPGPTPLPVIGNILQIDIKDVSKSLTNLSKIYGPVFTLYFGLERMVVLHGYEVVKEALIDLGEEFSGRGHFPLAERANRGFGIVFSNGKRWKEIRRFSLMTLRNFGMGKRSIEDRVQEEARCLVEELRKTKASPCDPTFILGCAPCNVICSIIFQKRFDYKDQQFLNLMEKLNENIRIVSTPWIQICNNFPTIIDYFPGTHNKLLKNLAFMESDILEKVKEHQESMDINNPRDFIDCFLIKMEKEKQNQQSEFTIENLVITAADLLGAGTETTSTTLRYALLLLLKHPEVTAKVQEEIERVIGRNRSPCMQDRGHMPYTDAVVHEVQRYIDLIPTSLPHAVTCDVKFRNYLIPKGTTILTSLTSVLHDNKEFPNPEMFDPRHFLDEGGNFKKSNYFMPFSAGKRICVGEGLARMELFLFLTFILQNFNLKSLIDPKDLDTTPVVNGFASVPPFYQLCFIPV

Sequence of METTL3/METTL14 (Q86U44 whole entry): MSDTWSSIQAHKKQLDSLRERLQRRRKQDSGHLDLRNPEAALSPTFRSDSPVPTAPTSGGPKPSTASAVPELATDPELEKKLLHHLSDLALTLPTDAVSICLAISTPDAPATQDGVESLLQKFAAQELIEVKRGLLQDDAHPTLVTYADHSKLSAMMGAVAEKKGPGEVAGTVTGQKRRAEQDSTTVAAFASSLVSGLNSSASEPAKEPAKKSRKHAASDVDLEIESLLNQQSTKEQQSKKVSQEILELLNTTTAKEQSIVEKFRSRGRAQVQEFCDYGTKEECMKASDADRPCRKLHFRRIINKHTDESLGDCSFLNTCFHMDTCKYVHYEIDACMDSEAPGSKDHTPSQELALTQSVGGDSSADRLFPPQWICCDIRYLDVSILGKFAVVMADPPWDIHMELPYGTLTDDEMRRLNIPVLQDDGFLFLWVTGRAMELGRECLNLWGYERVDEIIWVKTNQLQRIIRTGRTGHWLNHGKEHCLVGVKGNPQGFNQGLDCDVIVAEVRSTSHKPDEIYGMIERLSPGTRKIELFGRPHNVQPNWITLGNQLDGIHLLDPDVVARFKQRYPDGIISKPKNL
Sequence of METTL3/METTL14 (Q9HCE5 whole entry, further chain): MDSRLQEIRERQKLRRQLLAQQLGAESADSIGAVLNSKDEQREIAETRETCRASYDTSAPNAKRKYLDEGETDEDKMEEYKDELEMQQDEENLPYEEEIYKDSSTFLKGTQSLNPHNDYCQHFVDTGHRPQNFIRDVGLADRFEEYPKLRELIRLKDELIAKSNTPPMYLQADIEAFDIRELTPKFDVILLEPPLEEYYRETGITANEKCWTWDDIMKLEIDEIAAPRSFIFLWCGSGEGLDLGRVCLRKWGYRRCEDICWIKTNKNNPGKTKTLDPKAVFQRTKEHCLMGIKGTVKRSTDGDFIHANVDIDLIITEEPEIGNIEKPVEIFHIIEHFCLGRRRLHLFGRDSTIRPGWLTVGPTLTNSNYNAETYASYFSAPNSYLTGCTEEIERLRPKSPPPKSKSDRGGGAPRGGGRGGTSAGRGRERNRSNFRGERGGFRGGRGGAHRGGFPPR

inhibition [1]: Dose-dependent-effect
IC50 [2]: 6 nM
half-life [3]: > 4 h
IC50 [4]: 169 nM
fAUC [6]: 5.1 µM·min
IC50 [9]: > 100000 nM
half-life [13]: > 4 h
Fu [16]: 23%
half-life [20]: 1.52 h
IC50 [21]: > 100000 nM
Compound: C[C@@H](n1cc(-c2cncc(N(C)C)c2)nn1)n1ccc(N2CCC[C@@H](NCC3CC3)C2)cc1=O
IC50 [5]: 50 nM
Activity [7]: Active
Activity [8]: Active
Activity [10]: Active
Activity [11]: Active
Activity [12]: Non-toxic
inhibition [14]: Active
inhibition [15]: Active
viability at 50 µM [17]: 90.3%
Activity [18]: Non-toxic
Activity [19]: Active

Reference: ChEMBL document CHEMBL6121062, “Discovery, Optimization, and Preclinical Pharmacology of EP652, a METTL3 Inhibitor with Efficacy in Liquid and Solid Tumor Models” (J Med Chem, 2025)
